Measured values reported in US12521438B2, “SMARCA degraders and uses thereof” (Kymera Therapeutics, Inc., priority 2019, dated 2026).

Columns and labels:
Format in all cases: cell-based
SMARCA2 [1] = molecular target: T1, SMARCA2 (Homo sapiens, UniProt P51531); assay: MSD SMARCA2 degradation in NCI-H1299 cell line; set-up: endogenous in cells; settings: NCI-H1299 cells, 24 hours
Experimental: Example 8. MSD SMARCA2 Degradation in NCI-H1299 Cell Line
Cell Culture: Cells were Cultured in Exponential Growth Phase.
Compound Preparation and Treatment: NCI-H1299 cells were seeded into the 96-well plate at 4.0*10^4 cells per 100 ul per well. Incubate the plate in the incubator overnight. The next day, compounds were diluted to designed stock concentration by TECAN, then perform a 3 fold, 9-point dilution via transferring 15 uL compound into 30 μL DMSO using Apricot. 200 nL diluted compound from compound source plate were transferred into the 96-intermediate plate as designated by using Echo550, followed with 100 ul culture medium to make the 2× compound solution. Cell plate were changed with 80 ul of fresh culture medium and 80 ul of 2× compound solution was added into the well to achieve the final designed concentration. Cell plate was then shaken at 720 rpm for 5 min and incubated for 24 hours in the incubator.
Sample Preperation: Media was aspirated from the cultures and the plate was washed with PBS twice. 60 ul of pre-chilled PIPA lysis buffer (Boston BioProducts BP-115D) with protease inhibitor were directly added into the well to lyze the cells for 20 minutes at 4° C. Cell lysates were collected.
MSD Procedure: The MSD plate was coated with 40 ul cell lysate and incubated at 4° C. overnight. The next day, the MSD coated bare plate was washed 3 times with 150 ul 1×TBST per well, blocked with 150 ul of blocking buffer per well, and shaken for 1 hour at RT, 600 rpm. Blocking buffer was 3% Blocker A in TBST. MSD plate was then washed 3 times with 150 ul 1× TBST per well and Primary Detection antibody (Rabbit anti-SMARCA2/BRM antibody, 100 μg/ml, ab223735) was added to a final [conc.]: 0.3 ug/ml, 25 ul/well and shaken for 1 hour at RT, 600 rpm. Antibody was prepared in Antibody Detection buffer (1% Blocker A in 1×TBST). The MSD plate was then washed 3 times with 150 ul 1×TBST per well. Secondary Detection antibody (SULFO-TAG anti-species antibody) was then added to a final [conc.]: 1 ug/ml, 25 ul/well, and shaken for 1 hour at RT, 600 rpm. Antibodies were prepared in Antibody Detection buffer (1% Blocker A in 1×TBST). MSD plate was washed 3 times with 150 ul 1×TBST per well and 2× MSD reading buffer was added, 150 ul per well, and diluted from 4× with water. MSD instrument was then read.
Data Analysis: The percentage of relative level of SMARCA2 level was calculated following equation below.
LC: A2780, SMARCA2 negative cells. HC: NCI-H1299 cells treated with DMSO.

SMARCA4 = molecular target: T2, SMARCA4 (Homo sapiens, UniProt P51532); assay: SMARCA4 Western blot MV4-11 degradation; settings: MV4-11 cells, 24 hours; for Dmax: read-out: SMARCA4 WB MV411 degradation 24h: Average Dmax %; for DC50: read-out: SMARCA4 WB MV411 degradation 24h: Average external-Abs DC50
T2 construct: endogenous in cells; host or cells: MV4-11
T2 sequence (P51532 whole entry): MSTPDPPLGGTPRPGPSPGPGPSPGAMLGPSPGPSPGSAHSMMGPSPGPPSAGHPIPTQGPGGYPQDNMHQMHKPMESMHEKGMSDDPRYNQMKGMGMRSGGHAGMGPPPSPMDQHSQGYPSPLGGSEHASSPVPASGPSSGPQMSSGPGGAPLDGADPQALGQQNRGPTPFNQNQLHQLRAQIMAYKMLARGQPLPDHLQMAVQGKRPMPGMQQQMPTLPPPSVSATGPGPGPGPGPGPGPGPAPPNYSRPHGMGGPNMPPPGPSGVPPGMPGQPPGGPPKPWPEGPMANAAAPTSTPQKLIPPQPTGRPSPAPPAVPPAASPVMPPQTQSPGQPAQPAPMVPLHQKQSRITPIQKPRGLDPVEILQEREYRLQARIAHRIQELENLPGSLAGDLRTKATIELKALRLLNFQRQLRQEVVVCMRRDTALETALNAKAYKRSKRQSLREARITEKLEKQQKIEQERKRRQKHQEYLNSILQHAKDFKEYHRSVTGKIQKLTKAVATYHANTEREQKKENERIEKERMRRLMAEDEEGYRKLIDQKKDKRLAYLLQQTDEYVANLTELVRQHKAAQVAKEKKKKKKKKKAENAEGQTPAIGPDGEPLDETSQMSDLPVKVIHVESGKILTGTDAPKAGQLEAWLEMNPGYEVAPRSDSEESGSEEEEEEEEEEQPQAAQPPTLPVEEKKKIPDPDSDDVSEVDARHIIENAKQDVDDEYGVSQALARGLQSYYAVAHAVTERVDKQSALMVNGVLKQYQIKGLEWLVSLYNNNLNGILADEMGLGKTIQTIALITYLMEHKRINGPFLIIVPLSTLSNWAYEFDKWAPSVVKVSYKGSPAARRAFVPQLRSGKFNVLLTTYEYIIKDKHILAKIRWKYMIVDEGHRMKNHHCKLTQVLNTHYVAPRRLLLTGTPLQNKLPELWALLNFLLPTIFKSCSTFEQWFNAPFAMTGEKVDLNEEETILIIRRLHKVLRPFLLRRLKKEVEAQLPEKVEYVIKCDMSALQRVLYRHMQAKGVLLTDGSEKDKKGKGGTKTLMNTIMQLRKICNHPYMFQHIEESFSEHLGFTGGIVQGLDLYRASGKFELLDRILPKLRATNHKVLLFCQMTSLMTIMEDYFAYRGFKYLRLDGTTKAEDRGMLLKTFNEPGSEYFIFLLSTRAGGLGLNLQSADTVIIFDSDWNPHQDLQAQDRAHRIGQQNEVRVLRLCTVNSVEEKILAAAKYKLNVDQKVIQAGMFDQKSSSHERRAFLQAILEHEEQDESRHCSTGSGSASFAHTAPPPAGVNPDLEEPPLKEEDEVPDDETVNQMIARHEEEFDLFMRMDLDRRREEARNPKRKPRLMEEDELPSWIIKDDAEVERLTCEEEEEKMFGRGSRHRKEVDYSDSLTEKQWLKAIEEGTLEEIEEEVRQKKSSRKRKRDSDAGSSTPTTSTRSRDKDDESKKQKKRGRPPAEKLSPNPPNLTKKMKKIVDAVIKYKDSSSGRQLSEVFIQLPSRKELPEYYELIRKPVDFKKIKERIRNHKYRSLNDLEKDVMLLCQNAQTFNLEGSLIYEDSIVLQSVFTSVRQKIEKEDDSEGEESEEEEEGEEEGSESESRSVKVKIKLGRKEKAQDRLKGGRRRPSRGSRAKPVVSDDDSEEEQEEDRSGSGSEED
Experimental: (§1) Example 10. SMARCA2 and SMARCA 4 Western Blot MV4-11 Degradation
(§2) Cells were seeded into 6-well plates (MV4-11: 4×10^6 cells/well/1 ml) and 1 ml of 2× compound solution was added into the well to make the final concentration and the plates were mixed well and incubated for 24 hours (No cytotoxicity was observed). The cell were collected with media and spun at 3000 rpm for 5 minutes. The supernatant was aspirated and the well and the cells were washed with cold PBS once and combined for centrifugation again; the supernatant aspirated again. 200 ul pre-chilled RIPAlysis buffer (Boston BioProducts BP-115D) with protease/phosphatase inhibitor (Roche 05892791001/Roche 04906837001) was directly added into the tube to lyze the cells for 20 minutes on ice. The cell lysate were collected into EP tubes and spun at 13000 rpm for 20 minutes and 72 ul supernatant was transferred to a fresh EP tube containing 18 ul of 5× loading buffer (Beyotime Bio P0015) to make the loading samples. The samples were heated to 100° C. for 10 minutes and cooled to RT and microcentrifuged. 20 ul of samples were loaded onto SDS-PAGE gel (Novex, WG1402BOX) and the gel was run at 80 V for 20 minutes and 120 V for 1.5 hours. The samples were electrotransfer to a NC membrane using wet-transfer method with 250 mA for 2.5 hours. The membrane was blocked with LICOR blocking buffer (LI-COR, 927-50000) for 1 hour. The membrane was washed three times with TBST (CST #9997S), 5 minutes each. Incubation was performed with primary antibody prepared in blocking buffer with 0.1% Tween-20 (Solarbio, P8220) at 4° C. overnight (Anti-SMARCA2/BRM antibody (ab15597) 1:500; Anti-BRG1 antibody [EPR3912] (ab108318) 1:1000; Rabbit anti-Baf180 antibody [EPR15860] (Abcam,ab196022) 1:1000; mouse anti-beta-Actin (8H10D10) (CST #3700) 1:10000). The membrane was washed three times with TBST, 5 minutes each. Incubation with secondary antibody was performed for 1 hour at RT (anti-rabbit IgG (Licor, 926-32211) 1:5000; anti-mouse IgG (LI-COR, 926-68070) 1:5000). The membrane was washed three times with 5 minutes each and lastly the LiCOR was read.

SMARCA2 [2] = molecular target: T1, SMARCA2; assay: MSD SMARCA2 degradation in A549 cell line; set-up: endogenous in cells; host or cells: A549; settings: A549 cells, 24 hours
Experimental: Example 9. MSD SMARCA2 Degradation in A549 Cell Line
Cells were seeded into 96-well plates (A549 cells: 2×10^4 cells/well/100 ul media) abd incubated overnight. The next day, 200 nl compound were added into the intermediate plate with Echo (Labcyte 550) from source plate containing a 3-fold serial dilution from top concentration of 1 mM. The culture medium was changed with 80 ul of fresh medium and 80 ul of 2× compound solution was added into the well to make a final concentration of 1000 nM, 333.3 nM, 111.1 nM, 37.04 nM, 12.35 nM, 4.115 nM, 1.372 nM, 0.457 nM, 0.152 nM and 0 nM (DMSO). The wells were mixed and then incubated for 24 hours. The media was aspirated from the cultures and 60 ul pre-chilled PIPA lysis buffer (Boston BioProducts BP-115D) with protease/phosphatase inhibitor (Roche 05892791001/Roche 04906837001) was added into the well to lyze the cells for 20 minutes at 4° C. The MSD plate (L15XA) was coated with 40 ul cell lysate and incubated at 4° C. overnight. The next day, the plate was washed three times with TBST (CST #9997S), 150 ul/well. The MSD plates was blocked with 150 ul blocking buffer per well and shaked for 1 hr at RT, 600 rpm. The blocking buffer was 3% Blocker A (MSD, R93BA-4) in TBST. The MSD plate was washed three times with 150 ul/well of TBST and 25 ul/well of detection antibody (Rabbit anti-SMARCA2/BRM antibody, 100 μg/ml, ab223735) was added at final concentration of 1 ug/ml diluted in 1% Blocking buffer and shaken for 1 hour at RT, 600 rpm. The MSD plate was washed three times with 150 ul/well of TBST and 25 ul/well of SULFO-TAG anti-rabbit antibody (MSD, R32AB-1) was added at final concentration of 1 ug/ml diluted in 1% Blocking buffer and shaken for 1 hour at RT, 600 rpm. The MSD plate was washed three times with 150 ul/well of TBST and 150 ul/well of 2×MSD reading buffer diluted from 4× (MSD, R92TC-2) with water was added. Lastly, the MSD instrument was read.

SMARCA2 [3] = molecular target: T1, SMARCA2; assay: SMARCA2 Western blot MV4-11 degradation; set-up: endogenous in cells; settings: MV4-11 cells, 24 hours
Experimental: as §1
as §2, with “The membrane was blocked with LICOR blocking buffer (LI-COR, 927-50000) for 1 hour. The membrane was washed three times with TBST (CST #9997S), 5 minutes each. Incubation was performed with primary antibody prepared in blocking buffer with 0.1% Tween-20 (Solarbio, P8220) at 4° C. overnight (Anti-SMARCA2/BRM antibody (ab15597) 1:500; Anti-BRG1 antibody [EPR3912] (ab108318) 1:1000; Rabbit anti-Baf180 antibody [EPR15860] (Abcam,ab196022) 1:1000; mouse anti-beta-Actin (8H10D10) (CST #3700) 1:10000). The membrane was washed three times with TBST, 5 minutes each. Incubation with secondary antibody was performed for 1 hour at RT (anti-rabbit IgG (Licor, 926-32211) 1:5000; anti-mouse IgG (LI-COR, 926-68070) 1:5000).” left out

T1 sequence (P51531 whole entry): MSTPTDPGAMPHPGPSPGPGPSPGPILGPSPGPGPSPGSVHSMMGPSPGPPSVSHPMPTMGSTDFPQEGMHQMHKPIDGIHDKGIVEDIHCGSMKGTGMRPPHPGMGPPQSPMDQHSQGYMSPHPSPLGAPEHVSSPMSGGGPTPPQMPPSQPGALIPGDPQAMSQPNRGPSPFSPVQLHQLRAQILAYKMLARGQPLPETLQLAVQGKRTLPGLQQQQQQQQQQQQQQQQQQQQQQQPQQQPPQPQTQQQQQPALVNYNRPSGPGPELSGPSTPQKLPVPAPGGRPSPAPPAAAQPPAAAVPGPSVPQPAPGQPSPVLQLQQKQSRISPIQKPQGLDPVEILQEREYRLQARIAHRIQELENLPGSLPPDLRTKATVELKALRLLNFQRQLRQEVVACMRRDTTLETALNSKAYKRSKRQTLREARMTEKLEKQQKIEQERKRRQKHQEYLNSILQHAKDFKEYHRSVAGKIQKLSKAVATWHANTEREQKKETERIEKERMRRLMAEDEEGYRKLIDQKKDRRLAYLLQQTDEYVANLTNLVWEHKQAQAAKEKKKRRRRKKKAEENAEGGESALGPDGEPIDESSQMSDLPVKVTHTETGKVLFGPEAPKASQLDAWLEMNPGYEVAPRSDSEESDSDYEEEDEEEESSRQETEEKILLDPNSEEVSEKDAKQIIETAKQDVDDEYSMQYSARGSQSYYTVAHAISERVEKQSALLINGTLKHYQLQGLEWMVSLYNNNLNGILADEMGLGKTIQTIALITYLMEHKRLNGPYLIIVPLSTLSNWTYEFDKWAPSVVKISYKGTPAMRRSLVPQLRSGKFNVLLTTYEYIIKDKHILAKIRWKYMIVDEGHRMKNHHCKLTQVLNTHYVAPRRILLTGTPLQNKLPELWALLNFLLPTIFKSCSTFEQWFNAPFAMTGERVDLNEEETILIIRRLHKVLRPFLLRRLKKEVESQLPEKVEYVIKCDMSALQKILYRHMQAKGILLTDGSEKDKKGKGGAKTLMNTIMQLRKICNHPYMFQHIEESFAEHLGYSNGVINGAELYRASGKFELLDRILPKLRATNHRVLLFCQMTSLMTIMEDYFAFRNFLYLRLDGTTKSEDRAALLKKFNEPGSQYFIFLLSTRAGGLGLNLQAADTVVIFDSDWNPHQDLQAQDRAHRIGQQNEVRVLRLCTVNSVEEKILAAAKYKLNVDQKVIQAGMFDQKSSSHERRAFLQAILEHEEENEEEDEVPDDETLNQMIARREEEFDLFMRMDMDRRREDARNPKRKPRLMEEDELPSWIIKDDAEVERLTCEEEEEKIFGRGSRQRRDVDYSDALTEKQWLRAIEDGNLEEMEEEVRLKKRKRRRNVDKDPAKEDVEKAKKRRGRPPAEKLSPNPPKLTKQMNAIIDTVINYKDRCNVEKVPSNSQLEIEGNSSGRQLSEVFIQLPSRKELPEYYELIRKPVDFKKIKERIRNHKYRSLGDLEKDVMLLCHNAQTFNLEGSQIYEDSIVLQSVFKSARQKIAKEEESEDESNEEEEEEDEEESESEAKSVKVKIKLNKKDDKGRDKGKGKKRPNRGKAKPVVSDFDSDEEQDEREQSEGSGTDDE

SMILES | Dmax (SMARCA2 [1]) [%] | Dmax (SMARCA4) [%] | DC50 (SMARCA4) [nM] | Dmax (SMARCA2 [2]) [%] | DC50 (SMARCA2 [2]; read-out: SMARCA2 MSD A549 degradation 24h: Average external-Abs DC50) [nM] | Dmax (SMARCA2 [3]; read-out: SMARCA2 WB MV411 degradation 24h: Average Dmax %) [%] | DC50 (SMARCA2 [3]; read-out: SMARCA2 WB MV411 degradation 24h: Average external-Abs DC50) [nM]
Cc1ncsc1-c1ccc(CNC(=O)[C@@H]2C[C@@H](O)CN2C(=O)[C@@H](NC(=O)CCCCCCCN2CCC(c3c[nH]c4nnc(-c5ccccc5O)cc34)CC2)C(C)(C)C)cc1 [I-12] | < 50 |  |  |  |  |  | 
Cn1c(=O)n(C2CCC(=O)NC2=O)c2ccc(CCCCCCCCCN3CCC(c4c[nH]c5nnc(-c6ccccc6O)cc45)CC3)cc21 (centres unmarked) [I-7] | < 50 | < 50 | < 100 |  |  |  | 
Cc1ncsc1-c1ccc(CNC(=O)[C@@H]2C[C@@H](O)CN2C(=O)[C@@H](NC(=O)CCCCCCCCCN2CCC(c3c[nH]c4nnc(-c5ccccc5O)cc34)CC2)C(C)(C)C)cc1 [I-8] | 50 to 70 |  |  |  |  |  | 
Cn1c(=O)n(C2CCC(=O)NC2=O)c2cccc(CCCCCN3CCC(c4c[nH]c5nnc(-c6ccccc6O)cc45)CC3)c21 (centres unmarked) [I-10] | < 50 | < 50 | < 100 |  |  |  | 
Cn1c(=O)n(C2CCC(=O)NC2=O)c2cccc(CN3CCC(c4c[nH]c5nnc(-c6ccccc6O)cc45)CC3)c21 (centres unmarked) [I-13] | < 50 | < 50 | < 100 |  |  |  | 
Cn1c(=O)n(C2CCC(=O)NC2=O)c2cccc(CCCOCCCN3CCC(c4c[nH]c5nnc(-c6ccccc6O)cc45)CC3)c21 (centres unmarked) [I-6] | < 50 | < 50 | 100 to 500 |  |  |  | 
Cn1c(=O)n(C2CCC(=O)NC2=O)c2cccc(CCCN3CCC(c4c[nH]c5nnc(-c6ccccc6O)cc45)CC3)c21 (centres unmarked) [I-11, 3-(4-(3-(4-(3-(2-hydroxyphenyl)-7H-pyrrolo[2,3-c]pyridazin-5-yl)piperidin-1-yl)propyl)-3-methyl-2-oxo-2,3-dihydro-1H-benzo[d]imidazol-1-yl)piperidine-2,6-dione] | < 50 | < 50 |  |  |  |  | 
Cc1ncsc1-c1ccc(CNC(=O)[C@@H]2C[C@@H](O)CN2C(=O)[C@@H](NC(=O)CCCCCN2CCC(c3c[nH]c4nnc(-c5ccccc5O)cc34)CC2)C(C)(C)C)cc1 [I-9] | < 50 |  |  |  |  |  | 
Cc1ncsc1-c1ccc(CNC(=O)[C@@H]2C[C@@H](O)CN2C(=O)[C@@H](NC(=O)[C@H]2CC[C@H](c3cnc(N4CCC(c5c[nH]c6nnc(-c7ccccc7O)cc56)CC4)nc3)CC2)C(C)(C)C)cc1 [I-46, (2S,4R)-4-hydroxy-1-((S)-2-((1r,4S)-4-(2-(4-(3-(2-hydroxyphenyl)-7H-pyrrolo[2,3-c]pyridazin-5-yl)piperidin-1-yl)pyrimidin-5-yl)cyclohexanecarboxamido)-3,3-dimethylbutanoyl)-N-(4-(4-methylthiazol-5-yl)benzyl)pyrrolidine-2-carboxamide] |  | 50 to 70 | > 1000 | > 90 | < 100 | > 90 | < 100
